{"source": "patent US7625883B1", "about": "“Glycerophosphoinositol derivatives as modulators of cytosolic A2 phospholipase” (I.R.B. Istituto di Ricerche Biotechnologiche S.R.L., priority 2000, dated 2009)", "key": {"Swiss 3T3 fibroblasts [1]": {"tested_on": "Swiss 3T3 fibroblasts", "experiment": "mastoparan-dependent release of [3H]-arachidonic acid in Swiss 3T3 fibroblasts", "format": "cell-based", "protocol": "(§1) cPLA2-dependent mechanism, for example ATP, mastoparan, bombesin;\n(§2) The cells are initially incubated with various concentrations of the compound under examination for 60 minutes or with a predefined concentration of 100 μM for various time intervals (15-180 minutes), washed two times with HBSS (Hank's Balanced Salt Solution, in the presence of Ca2+ and Mg2+ ions) added with 10 mM Hepes and 0.2% BSA—in absence of free fatty acids, pH 7.4 and stimulated with 100 μM ATP in the described buffer for 10 minutes at 37° C. The supernatant was collected in scintillation cuvettes for determination. The results are expressed as a percentage of the total release of [3H]-arachidonic acid.\nPreloaded radioactively labeled cells were pre-incubated with various concentrations of the Example 4a for 60 minutes and then stimulated with 100 μM mastoparan for 10 minutes. The results are expressed as the mean±SE of two points in 3 separate experiments."}, "cPLA2": {"tested_on": "cPLA2", "experiment": "release of arachidonic acid induced by the activation of cPLA2 in various cellular systems (overall statement)", "format": "cell-based", "details": "all the cellular systems tested", "protocol": "Evaluation of the effects of the L-α-glycero-phospho-D-mio-inositol autacoid coded example 4a on the release of arachidonic acid induced by cPLA2 in various cellular systems.\nThe cultures are stimulated to release arachidonic acid using various stimuli:\nas §1, §2"}, "Balb/c mice [2]": {"tested_on": "Balb/c mice", "experiment": "plasma extravasation in the ear pinna of the mouse induced by substance P", "details": "compound 5 mg/kg endovenous"}, "solubility in water": {"experiment": "solubility in water", "format": "physicochemical"}, "[3]": {"experiment": "solubility in organic solvents", "format": "physicochemical"}, "Swiss 3T3 fibroblasts [4]": {"tested_on": "Swiss 3T3 fibroblasts", "experiment": "release of [3H]-arachidonic acid from Swiss 3T3 fibroblasts stimulated with ATP", "format": "cell-based", "protocol": "as §1, §2\n(§3) Preloaded cells were pre-incubated with various concentrations of the Example 4a for 60 minutes and then stimulated with 100 μM ATP for 10 minutes. The results are expressed as the mean±SE of two points in 3 separate experiments."}, "Balb/c mice [5]": {"tested_on": "Balb/c mice", "experiment": "plasma extravasation in the ear pinna of the mouse induced by peptide P6-11 of substance P", "format": "in vivo", "details": "P 6-11"}, "FRTL5 cells [6]": {"tested_on": "FRTL5 cells", "experiment": "release of [3H]-arachidonic acid from FRTL5 cells stimulated with ATP", "format": "cell-based, rat", "details": "ATP 100 μM 10 minutes", "protocol": "FRTL5, cell line of epithelial cells from rat thyroid grown in culture. Briefly, the cells were cultured in Coon's F12 medium modified according to Ham and supplemented with 5% bovine serum, 20 mM glutamine and a mixture of six hormones. (6H-thyrotropin, insulin, transferring, cortisol, somatostatin, glicil-L-istidil-L-lysine acetate) at 37° C. in a humidified atmosphere in 5% CO2, 95% air medium changed every 3-4 days. […]\nas §2\nPreloaded cells are incubated with 100 μM of compound of the Example 4a for different time intervals and then stimulated with ATP (100 μM) for 10 minutes. The results are expressed as the mean±SE of two points in 3 separate experiments. The stimulation of control cells was generally 4-5 times the basal value in the corresponding intervals.\nas §3"}, "Swiss 3T3 fibroblasts [7]": {"tested_on": "Swiss 3T3 fibroblasts", "experiment": "bombesin-dependent release of [3H]-arachidonic acid in Swiss 3T3 fibroblasts", "format": "cell-based", "details": "then bombesin 10 minutes", "protocol": "as §1, §2\nPreloaded cells were pre-incubated with various concentrations of the Example 4a for 60 minutes and then stimulated with bombesin for 10 minutes. The results are expressed as the mean±SE of two points in 3 separate experiments."}, "FRTL5 cells [8]": {"tested_on": "FRTL5 cells", "experiment": "release of [3H]-arachidonic acid induced by ionomicin in FRTL5 cells (cPLA2-independent)", "format": "cell-based, rat", "details": "for Release of [^3H]-arachidonic acid: then 10 μM ionomicin 30 minutes", "protocol": "FRTL5, cell line of epithelial cells from rat thyroid grown in culture. Briefly, the cells were cultured in Coon's F12 medium modified according to Ham and supplemented with 5% bovine serum, 20 mM glutamine and a mixture of six hormones. (6H-thyrotropin, insulin, transferring, cortisol, somatostatin, glicil-L-istidil-L-lysine acetate) at 37° C. in a humidified atmosphere in 5% CO2, 95% air medium changed every 3-4 days.\ncPLA2-independent mechanism, for example Ca2+ ionophore, ionomicin.\nas §2\nPreloaded cells were pre-incubated with various concentrations of the Example 4a for 60 minutes and then stimulated with 10 μM ionomicin for 30 minutes. The results are expressed as the mean±SE of two points in 3 separate experiments."}, "[9]": {"details": "compound 5 mg/kg endovenous 30 minutes before"}, "[10]": {"details": "compound 10 mg/Kg endovenous 30 minutes before"}}, "note": "Marks after values point to notes of the source that are not given here."}
{"molecule": "Mastoparan [reference compound]", "values": [{"measurement": "Release of [^3H]-arachidonic acid % basal", "setting": "Swiss 3T3 fibroblasts [1]; stimulus alone: 100 μM mastoparan 10 minutes, no test compound", "value": "150 ± 12", "unit": "% basal"}]}
{"molecule": "L-α-glycero-phospho-D-mio-inositol zinc salt [Example 3]", "values": [{"measurement": "effect on release of arachidonic acid induced by the activation of the cPLA2 (in words)", "setting": "cPLA2", "value": "more potent effect"}]}
{"molecule": "C[N+](C)(C)CCO.O=P([O-])(OCC(O)CO)OC1C(O)C(O)C(O)C(O)C1O", "note": "[Example 5, L-α-glycero-phospho-D-mio-inositol choline salt]", "values": [{"measurement": "Absorbance (Evan's Blue, 620 nm)", "setting": "Balb/c mice [2]", "value": "0.222 ± 0.010"}]}
{"molecule": "CCCC[N+](CCCC)(CCCC)CCCC.O=P([O-])(OCC(O)CO)OC1C(O)C(O)C(O)C(O)C1O", "note": "[Example 8, L-α-glycero-phospho-D-mio-inositol tetrabutylammonium salt]", "values": [{"measurement": "solubility in water", "setting": "solubility in water", "value": ">10", "unit": "mg/mL"}, {"measurement": "solubility in organic solvents", "setting": "[3]; in DMF", "value": "≧10 mg/ml in DMF"}, {"measurement": "solubility in organic solvents", "setting": "[3]; in words", "value": "slightly soluble in organic solvents,"}]}
{"molecule": "Nc1ncnc2c1ncn2[C@@H]1O[C@H](COP(=O)(O)OP(=O)(O)OP(=O)(O)O)[C@@H](O)[C@H]1O", "note": "[ATP, reference compound]", "values": [{"measurement": "Release of [^3H]-arachidonic acid % basal", "setting": "Swiss 3T3 fibroblasts [4]; stimulus alone: 100 μM ATP 10 minutes, no test compound", "value": "149 ± 11", "unit": "% basal"}]}
{"molecule": "O=P([O-])(OCC(O)CO)OC1C(O)C(O)C(O)C(O)C1O.[Na+]", "note": "[Example 4, L-α-glycerol-phospho-D-mio-inositol sodium salt]", "values": [{"measurement": "effect on release of arachidonic acid induced by the activation of the cPLA2 (in words)", "setting": "cPLA2", "value": "more potent effect"}]}
{"molecule": "NCCCC[C@H](N)C(=O)O.O=P(O)(OCC(O)CO)OC1C(O)C(O)C(O)C(O)C1O", "note": "[Example 6, L-α-glycero-phospho-D-mio-inositol lysine salt]", "values": [{"measurement": "Absorbance (Evan's Blue, 620 nm)", "setting": "Balb/c mice [5]; [9]", "value": "0.131 ± 0.022"}, {"measurement": "Absorbance (Evan's Blue, 620 nm)", "setting": "Balb/c mice [5]; [10]", "value": "0.072 ± 0.010•"}, {"measurement": "Absorbance (Evan's Blue, 620 nm)", "setting": "Balb/c mice [2]", "value": "0.239 ± 0.015"}]}
{"molecule": "L-α-glycero-phospho-D-mio-inositol calcium salt [Example 2]", "values": [{"measurement": "Absorbance (Evan's Blue, 620 nm)", "setting": "Balb/c mice [5]; [9]", "value": "0.092 ± 0.021"}, {"measurement": "Absorbance (Evan's Blue, 620 nm)", "setting": "Balb/c mice [5]; [10]", "value": "0.079 ± 0.022•"}]}
{"molecule": "O=P([O-])(OCC(O)CO)OC1C(O)C(O)C(O)C(O)C1O.[K+]", "note": "[Example 4a, L-α-glycero-phospho-D-mio-inositol potassium salt]", "values": [{"measurement": "Release of [^3H]-arachidonic acid % inhibition", "setting": "FRTL5 cells [6]; 0.005 μM compound, 60 minutes preincubation", "value": "10 ± 2", "unit": "% inhibition"}, {"measurement": "Release of [^3H]-arachidonic acid % inhibition", "setting": "FRTL5 cells [6]; 0.01 μM compound, 60 minutes preincubation", "value": "35 ± 5", "unit": "% inhibition"}, {"measurement": "Release of [^3H]-arachidonic acid % inhibition", "setting": "FRTL5 cells [6]; 0.1 μM compound, 60 minutes preincubation", "value": "41 ± 2", "unit": "% inhibition"}, {"measurement": "Release of [^3H]-arachidonic acid % inhibition", "setting": "FRTL5 cells [6]; 1.0 μM compound, 60 minutes preincubation", "value": "52 ± 3", "unit": "% inhibition"}, {"measurement": "Release of [^3H]-arachidonic acid % inhibition", "setting": "FRTL5 cells [6]; 10 μM compound, 60 minutes preincubation", "value": "60 ± 8", "unit": "% inhibition"}, {"measurement": "Release of [^3H]-arachidonic acid % inhibition", "setting": "FRTL5 cells [6]; 50 μM compound, 60 minutes preincubation", "value": "70 ± 4", "unit": "% inhibition"}, {"measurement": "Release of [^3H]-arachidonic acid % inhibition", "setting": "FRTL5 cells [6]; 100 μM compound, 15 minutes of preincubation", "value": "30 ± 4", "unit": "% inhibition"}, {"measurement": "Release of [^3H]-arachidonic acid % inhibition", "setting": "FRTL5 cells [6]; 100 μM compound, 30 minutes of preincubation", "value": "42 ± 5", "unit": "% inhibition"}, {"measurement": "Release of [^3H]-arachidonic acid % inhibition", "setting": "FRTL5 cells [6]; 100 μM compound, 60 minutes of preincubation", "value": "70 ± 4", "unit": "% inhibition"}, {"measurement": "Release of [^3H]-arachidonic acid % inhibition", "setting": "FRTL5 cells [6]; 100 μM compound, 60 minutes preincubation", "value": "92 ± 2", "unit": "% inhibition"}, {"measurement": "Release of [^3H]-arachidonic acid % inhibition", "setting": "FRTL5 cells [6]; 100 μM compound, 90 minutes of preincubation", "value": "72 ± 5", "unit": "% inhibition"}, {"measurement": "Release of [^3H]-arachidonic acid % inhibition", "setting": "FRTL5 cells [6]; 100 μM compound, 120 minutes of preincubation", "value": "71 ± 6", "unit": "% inhibition"}, {"measurement": "Release of [^3H]-arachidonic acid % inhibition", "setting": "FRTL5 cells [6]; 100 μM compound, 180 minutes of preincubation", "value": "92 ± 9", "unit": "% inhibition"}, {"measurement": "Release of [^3H]-arachidonic acid % basal", "setting": "Swiss 3T3 fibroblasts [4]; 50 μM compound 60 minutes, then 100 μM ATP 10 minutes", "value": "80 ± 9", "unit": "% basal"}, {"measurement": "Release of [^3H]-arachidonic acid % basal", "setting": "Swiss 3T3 fibroblasts [4]; 100 μM compound 60 minutes, then 100 μM ATP 10 minutes", "value": "70 ± 4", "unit": "% basal"}, {"measurement": "Release of [^3H]-arachidonic acid % basal", "setting": "Swiss 3T3 fibroblasts [1]; 50 μM compound 60 minutes, then 100 μM mastoparan 10 minutes", "value": "90 ± 3", "unit": "% basal"}, {"measurement": "Release of [^3H]-arachidonic acid % basal", "setting": "Swiss 3T3 fibroblasts [1]; 100 μM compound 60 minutes, then 100 μM mastoparan 10 minutes", "value": "80 ± 4", "unit": "% basal"}, {"measurement": "Release of [^3H]-arachidonic acid % basal", "setting": "Swiss 3T3 fibroblasts [7]; 50 μM compound 60 minutes", "value": "120 ± 3", "unit": "% basal"}, {"measurement": "Release of [^3H]-arachidonic acid % basal", "setting": "Swiss 3T3 fibroblasts [7]; 100 μM compound 60 minutes", "value": "90 ± 4", "unit": "% basal"}, {"measurement": "Release of [^3H]-arachidonic acid", "setting": "FRTL5 cells [8]; 50 μM compound 60 minutes", "value": "720 ± 30"}, {"measurement": "Release of [^3H]-arachidonic acid", "setting": "FRTL5 cells [8]; 100 μM compound 60 minutes", "value": "450 ± 14"}, {"measurement": "effect on release of arachidonic acid induced by stimuli not related to cPLA2 (in words)", "setting": "FRTL5 cells [8]; calcium ionophore", "value": "does not induce reduction of the release of arachidonic acid"}, {"measurement": "Absorbance x10^−2", "setting": "Balb/c mice [5]; compound 0.5 mg/kg endovenous (Table 8)", "value": "54 ± 4* x10^−2"}, {"measurement": "Absorbance x10^−2", "setting": "Balb/c mice [5]; compound 1.5 mg/Kg endovenous (Table 8)", "value": "57 ± 7* x10^−2"}, {"measurement": "Absorbance x10^−2", "setting": "Balb/c mice [5]; compound 5 mg/Kg endovenous (Table 8)", "value": "34 ± 8* x10^−2"}, {"measurement": "Absorbance (Evan's Blue, 620 nm)", "setting": "Balb/c mice [5]; [9]", "value": "0.081 ± 0.027"}, {"measurement": "effect on release of arachidonic acid induced by the activation of the cPLA2 (in words)", "setting": "cPLA2", "value": "reduce in a time and concentration dependent manner the release of arachidonic acid"}]}
